PMC9103715, “New Panx-1 Blockers: Synthesis, Biological Evaluation and Molecular Dynamic Studies” (International Journal of Molecular Sciences, 2022)

How the values were obtained:
Panx-1 channels = biological target: T1, Panx-1 channels (Mus musculus, UniProt Q9JIP4); assay: Voltage clamp on Xenopus laevis oocytes expressing Panx-1 channels; type: cell-based; settings: for inhibition at 50 µM / I (%) inhibition of Panx-1 currents: voltage clamp, Xenopus laevis oocytes expressing Panx-1 channels, 50 µM; for inhibition at 50 µM: read-out: I (%) inhibition of Panx-1 currents; for classification as active or inactive Panx-1 blocker: grouping chosen for the virtual screening
T1 construct: expressed in transfected cells; host or cells: Xenopus laevis oocytes injected with in vitro-transcribed mRNA
Protocol: All new products were screened as Panx-1 blockers at the dose of 50 µM using the Voltage Clamp technique on Xenopus Laevis oocytes expressing Panx-1 channels. The membrane potential of the cells was held at -60 mV and voltage steps to +60 mV were applied to induce membrane currents. To verify that Panx-1 channels carried the currents, in each experiment 100 µM carbenoxolone (CBX) was applied. At this concentration, CBX is known to yield 100% inhibition of Panx-1 activity. If present, leak currents resistant to CBX were subtracted from the total current to assess % inhibition mediated by the tested compounds. Table 1 and Table 2 report the electrophysiological results of naphthalene-2-sulphonic acid derivatives bearing at position 5 an amino- (3a–e, 4 and 5) or amide group (7a–g, 8 and 9) and of compound 13.
Oocytes of Xenopus laevis are prepared as previously described in [39] where the oocytes are isolated from surgically removed ovary segments incubated in an Oocyte Ringe solution Ca2-free (OR2: in mM: 82.5 NaCl, 2.5 KCl, 1.0 MgCl2, […], 1.0 Na2HPO4 e 5.0 HEPES, pH 7.5) with 2 mg/mL of collagenase and antibiotics (10,000 U/mL penicillin and 10 mg/mL of streptomycin) stirred at room temperature for 3 h. After being washed with OR2, oocytes free of follicular cells and that have a uniform pigmentation are chosen and stored in OR2 for 18 °C.
Mouse pannexin1, in pCS2, was linearised with NotI. In vitro transcription was performed with the polymerase SP6, using the Message Machine kit (Ambion). mRNA was quantified by absorbance (260 nm), and the proportion of full-length transcripts was checked by agarose gel electrophoresis. In vitro-transcribed mRNA (~20 nL) was injected into Xenopus laevis oocytes.
Whole-cell membrane currents of oocytes were measured using a two-electrode voltage clamp (Gene Clamp 500B, Axon Instruments/Molecular Devices Sunnyvale, Union City, CA, USA). Glass pipettes were pulled using a P-97 Flaming/Brown type puller (Sutter, Novato, CA, USA). The recording chamber was perfused continuously with frog Ringer (OR) solution (in mM: 82.5 NaCl, 2.5 KCl, 1 CaCl2, 1 MgCl2, 1 Na2HPO4, and 5 HEPES, pH 7.5).
Membrane conductance was determined using voltage pulses, and the pulse-induced current amplitudes were divided by the amplitudes of the voltage steps. For calculation of % inhibition, leak currents were subtracted. Typically, leak currents after the interventions were smaller than at the beginning of the experiment and this smaller value was used for the subtraction to avoid overestimation of the inhibitory effect. For an independent measure of the leak current, oocytes at the end of the experiment were exposed to 100 µM carbenoxolone, which is known to close Panx1 channels 100%. Oocytes expressing Panx1 were held at −60 mV, and pulses to +60 mV were applied to transiently open the channels by means of the voltage gate. Pulses 5 s in duration were applied at 0.1 Hz for current and conductance measurements.

T1 sequence (Q9JIP4 whole entry): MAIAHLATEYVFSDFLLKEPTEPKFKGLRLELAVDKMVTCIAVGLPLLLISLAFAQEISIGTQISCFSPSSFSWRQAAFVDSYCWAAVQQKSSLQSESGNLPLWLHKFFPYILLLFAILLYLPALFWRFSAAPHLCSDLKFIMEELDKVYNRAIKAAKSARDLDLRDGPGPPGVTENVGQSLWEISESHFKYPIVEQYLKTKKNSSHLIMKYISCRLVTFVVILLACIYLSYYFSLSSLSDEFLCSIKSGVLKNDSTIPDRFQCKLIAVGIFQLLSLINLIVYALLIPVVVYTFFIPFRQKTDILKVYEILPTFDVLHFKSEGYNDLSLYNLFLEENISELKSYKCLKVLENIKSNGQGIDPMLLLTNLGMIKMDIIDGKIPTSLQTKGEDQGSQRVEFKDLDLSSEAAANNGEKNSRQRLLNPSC

Compound	inhibition at 50 µM (Panx-1 channels) [%]	melting point	also measured
CCNS(=O)(=O)c1ccc(-n2ncc(C(=O)O)c2N)cc1 [Compound 18a, 5-Amino-1-(4-(N-ethylsulfamoyl)phenyl)-1H-pyrazole-4-carboxylic acid]	0	208 to 210 °C (dec.)	
CCCN(CCC)S(=O)(=O)c1ccc(C(=O)Nc2cccc3cc(S(=O)(=O)O)ccc23)cc1 (hydrate or solvate) [Compound 7b, 5-[4-(N,N-dipropylsulfamoyl)benzamido]naphthalene-2-sulfonic acid]		> 300 °C	
CCN(CC)S(=O)(=O)c1ccc(C(=O)Nc2cccc3cc(S(=O)(=O)O)ccc23)cc1 (hydrate or solvate) [Compound 7a, 5-[4-(N,N-diethylsulfamoyl)benzamido]naphthalene-2-sulfonic acid]		> 300 °C	
O=S(=O)(O)c1ccc2c(NCc3ccccc3)cccc2c1 [Compound 3a, 5-(Benzylamino)naphthalene-2-Sulfonic Acid]	31.7 ± 0.9		classification as active or inactive Panx-1 blocker (Panx-1 channels): inactive
O=S(=O)(O)c1ccc2c(NCCCCCc3ccccc3)cccc2c1 [Compound 3e, 5-[(5-Phenylpentyl)amino]naphthalene-2-sulfonic acid]	62 ± 6		
Nc1c(C(=O)O)cnn1-c1ccc(S(N)(=O)=O)cc1 [Compound 17, 5-Amino-1-(4-sulfamoylphenyl)-1H-pyrazole-4-carboxylic acid]	0	210 to 211 °C	
O=S(=O)(O)c1ccc2c(NCCCCCc3ccccc3)cccc2c1 (hydrate or solvate) [Compound 3e, 5-[(5-Phenylpentyl)amino]naphthalene-2-sulfonic acid]		> 300 °C	
CCN(CC)S(=O)(=O)c1ccc(-n2ncc(C(=O)O)c2N)cc1 [Compound 19a, 5-Amino-1-(4-(N,N-diethylsulfamoyl)phenyl)-1H-pyrazole-4-carboxylic acid]	14.3 ± 7.4	240 °C (dec.)	
O=C(Nc1cccc2cc(S(=O)(=O)O)ccc12)c1ccc(S(=O)(=O)N(CCc2ccccc2)CCc2ccccc2)cc1 (hydrate or solvate) [Compound 7e, 5-[4-(N,N-diphenethylsulfamoyl)benzamido]naphthalene-2-sulfonic acid]		> 300 °C	
O=C(Nc1cccc2cc(S(=O)(=O)O)ccc12)c1ccc(S(=O)(=O)N(CCc2ccccc2)Cc2ccccc2)cc1 (hydrate or solvate) [Compound 7f, 5-[4-(N-benzyl-N-phenethylsulfamoyl)benzamido]naphthalene-2-sulfonic acid]		> 300 °C	
CCN(CC)S(=O)(=O)c1ccc(C(=O)Nc2cccc3cc(S(=O)(=O)O)ccc23)cc1 [Compound 7a, 5-[4-(N,N-diethylsulfamoyl)benzamido]naphthalene-2-sulfonic acid]	54 ± 2.3		
O=S(=O)(O)c1ccc2c(NCCCc3ccccc3)cccc2c1 (hydrate or solvate) [Compound 3c, 5-[(3-Phenylpropyl)amino]naphthalene-2-sulfonic acid]		> 300 °C	
O=C(Nc1cccc2cc(S(=O)(=O)O)ccc12)c1ccc(S(=O)(=O)N(CCc2ccccc2)Cc2ccccc2)cc1 [Compound 7f, 5-[4-(N-benzyl-N-phenethylsulfamoyl)benzamido]naphthalene-2-sulfonic acid]	61.3 ± 4.3		
O=S(=O)(O)c1ccc2c(NCCCCc3ccccc3)cccc2c1 (hydrate or solvate) [Compound 3d, 5-[(4-Phenylbutyl)amino]naphthalene-2-sulfonic acid]		> 300 °C	
O=C(Nc1cccc2cc(S(=O)(=O)O)ccc12)c1ccc(S(=O)(=O)N(CCc2ccccc2)CCc2ccccc2)cc1 [Compound 7e, 5-[4-(N,N-diphenethylsulfamoyl)benzamido]naphthalene-2-sulfonic acid]	58.3 ± 7.5		
O=C(Nc1cccc2cc(S(=O)(=O)O)ccc12)c1ccc(S(=O)(=O)NCCc2ccccc2)cc1 (hydrate or solvate) [Compound 7g, 5-[4-(N-phenethylsulfamoyl)benzamido]naphthalene-2-sulfonic acid]		> 300 °C	

Compound	inhibition at 50 µM (Panx-1 channels) [%]	melting point	also measured
O=C(O)c1ccc(CNc2cccc3cc(S(=O)(=O)O)ccc23)cc1 (hydrate or solvate) [Compound 4, 4-[(6-Sulfonaphthalen-1-yl)aminomethyl]benzoic Acid]		> 300 °C	
CN(Cc1ccccc1)c1cccc2cc(S(=O)(=O)O)ccc12 (hydrate or solvate) [Compound 5, 5-(Benzyl(methyl)amino)naphthalene-2-sulfonic Acid]		> 300 °C	
COC(=O)c1ccc(CNc2cccc3cc(S(=O)(=O)O)ccc23)cc1 [Compound 3f, 5-[(4-(Methoxycarbonyl)benzyl)amino]naphthalene-2-sulfonic acid]		> 300 °C	
CN(Cc1ccccc1)c1cccc2cc(S(=O)(=O)O)ccc12 [Compound 5, 5-(Benzyl(methyl)amino)naphthalene-2-sulfonic Acid]	27.3 ± 2.6		
Nc1c(C(=O)O)cnn1-c1ccc(S(=O)(=O)NCCc2ccccc2)cc1 [Compound 28, 5-Amino-1-(4-(N-phenethylsulfamoyl)phenyl)-1H-pyrazole-4-carboxylic acid]	22.7 ± 5.5	186 to 188 °C	
O=C(Nc1cccc2cc(S(=O)(=O)O)ccc12)c1ccccc1 [Compound 8, 5-Benzamidonaphthalene-2-sulfonic Acid]	15		I (%) inhibition of Panx-1 currents (Panx-1 channels): 15.3 ± 4.9%; classification as active or inactive Panx-1 blocker (Panx-1 channels): inactive
O=C(O)c1ccc(CN(Cc2ccc(C(=O)O)cc2)S(=O)(=O)c2ccc(C(=O)O)cc2)cc1 (hydrate or solvate) [Compound 13, 4,4′-{{[(4-Carboxyphenyl)sulfonyl]azanediyl}bis(methylene)}dibenzoic acid]		> 300 °C	
O=C(Nc1cccc2cc(S(=O)(=O)O)ccc12)c1ccc(S(=O)(=O)NCCc2ccccc2)cc1 [Compound 7g, 5-[4-(N-phenethylsulfamoyl)benzamido]naphthalene-2-sulfonic acid]	47.3 ± 6.5		classification as active or inactive Panx-1 blocker (Panx-1 channels): inactive
O=S(=O)(O)c1ccc2c(NCCCCc3ccccc3)cccc2c1 [Compound 3d, 5-[(4-Phenylbutyl)amino]naphthalene-2-sulfonic acid]	47 ± 5.7		
O=C(Nc1cccc2cc(S(=O)(=O)O)ccc12)c1ccc(S(=O)(=O)N(Cc2ccccc2)Cc2ccccc2)cc1 (hydrate or solvate) [Compound 7d, 5-[4-(N,N-dibenzylsulfamoyl)benzamido]naphthalene-2-sulfonic acid]		> 300 °C	
O=S(=O)(O)c1ccc2c(NCCc3ccccc3)cccc2c1 (hydrate or solvate) [Compound 3b, 5-(Phenethylamino)naphthalene-2-sulfonic acid]		> 300 °C	
CCCN(CCC)S(=O)(=O)c1ccc(C(=O)Nc2cccc3cc(S(=O)(=O)O)ccc23)cc1 [Compound 7b, 5-[4-(N,N-dipropylsulfamoyl)benzamido]naphthalene-2-sulfonic acid]	34		I (%) inhibition of Panx-1 currents (Panx-1 channels): 34.3 ± 5.2%
O=S(=O)(O)c1ccc2c(NCCc3ccccc3)cccc2c1 [Compound 3b, 5-(Phenethylamino)naphthalene-2-sulfonic acid]	24.3 ± 3.5		
CCCCN(CCCC)S(=O)(=O)c1ccc(C(=O)Nc2cccc3cc(S(=O)(=O)[O-])ccc23)cc1.[Na+] [Compound 9, Sodium 5-[4-(N,N-dibutylsulfamoyl)benzamido]naphthalene-2-sulfonate]			I (%) inhibition of Panx-1 currents (Panx-1 channels): 65.3 ± 3.9%
CCCCN(CCCC)S(=O)(=O)c1ccc(C(=O)Nc2cccc3cc(S(=O)(=O)O)ccc23)cc1 (hydrate or solvate) [Compound 7c, 5-[4-(N,N-dibutylsulfamoyl)benzamido]naphthalene-2-sulfonic acid]		> 300 °C	
O=S(=O)(O)c1ccc2c(NCc3ccccc3)cccc2c1 (hydrate or solvate) [Compound 3a, 5-(Benzylamino)naphthalene-2-Sulfonic Acid]		> 300 °C	
